Data on two molecules can be found in patent US11771647B2, “Eye drops in form of solution comprising benzopyran derivative or pharmaceutically acceptable salt thereof” (HANLIM PHARMACEUTICAL CO., LTD., priority 2018, dated 2023).

Series [1] is described as follows: Manufacturability / solubilization of HL217 eye drop solution (appearance). The conditions noted are these: pH 6.5. Type of series: physicochemical.
Experimental: That is, according to the components and amounts shown in Table 1, HL217, polyethylene glycol 400, glycerin, EDTA, and boric acid were added to the sterile purified water under stirring. The pH was adjusted to 6.5 with an aqueous hydrochloric acid solution and/or an aqueous sodium hydroxide solution; and then sterile purified water was added to the solution, so as to adjust the final volume. The amounts in Table 1 represent the amount of each component per 1 mL of the total volume.
Since the maximum allowable concentration of the U.S. Food and Drug Administration for polyethylene glycol 400 is 50 mg/ml in an eye drop formulation, the amount of polyethylene glycol 400 was adjusted to 1/10 (i.e., 15.0 mg) and correspondingly the amount of glycerin was also adjusted to 1/10 (i.e., 12.0 mg) for evaluating the solubilization of HL217. […] Specifically, according to the components and amounts shown in Table 2, HL217, polyethylene glycol 400, glycerin, EDTA, and boric acid were added to the sterile purified water under stirring. The pH was adjusted to 4.5 with an aqueous hydrochloric acid solution and/or an aqueous sodium hydroxide solution; and then sterile purified water was added to the solution, so as to adjust the final volume. The amounts in Table 2 represent the amount of each component per 1 mL of the total volume. […]
For series [2], the system named is mice with very low-density lipoprotein receptor (vldlr) gene knockout. Kind of series: Inhibitory efficacy against vascular leakage in animal model of macular degeneration (FIG. 1). Type of series: in vivo. Conditions: single intravitreal administration of 1 μl (50 ng/μl ranibizumab) in each eye. On the procedure: Lucentis™ injection (Norvatis, Basel, Switzerland) was used as a positive control.
The control group was instilled with 1 drop of sterile physiological saline, in each eye of normal mice (n=8), twice daily for 3 weeks. The AMD-induced group was instilled with 1 drop of sterile physiological saline, in each eye of mice with vldlr gene knockout (vldlr −/− mice), twice daily for 3 weeks. The positive control group received 1 μl of Lucentis™ injection (containing 50 ng/μl of ranibizumab) in each eye of vldlr −/− mice, by a single intravitreal administration using a Hamiltion syringe (Hamilton company, Reno, NV, USA).
The following experiments were carried out In order to evaluate any abnormality of retinal blood vessels, such as angiogenesis formation and abnormal blood vessel permeability. […] The isolated retina was placed on a slide, dropped with an aqueous mounting medium (Fluoromount™, Sigma, St. Louis, MO, USA) and then observed under a fluorescence microscope. For quantitative analysis of tracer dye, blood was collected from the heart 10 minutes after the dye injection, perfused with sterile PBS to remove residual dye from the blood vessels, and then the eyes were extracted to isolate the retina. The isolated retina was homogenized with 100 μL of PBS and then centrifuged to obtain the supernatant, in which the amount of FITC-dextran was then measured using a spectrofluorophotometer. […]

Regarding `COC(OC)[C@]1(C)Oc2ccc(N)cc2[C@H](N(Cc2ncc[nH]2)c2ccc(Cl)cc2)[C@H]1O` [HL217, (2R,3R,4S)-6-amino-4-[N-(4-chlorophenyl)-N-(1H-imidazol-2-ylmethyl)amino]-3-hydroxy-2-methyl-2-dimethoxymethyl-3,4-dihydro-2H-1-benzopyran], the Appearance entry in series [1] is “precipitates were generated”.

B1: Lucentis™ injection: Lucentis™ injection (Norvatis) containing 50 ng/μl of ranibizumab, used as a positive control (antibody, chains of the INN, looked up, V domains shown)
VH: EVQLVESGGGLVQPGGSLRLSCAASGYDFTHYGMNWVRQAPGKGLEWVGWINTYTGEPTYAADFKRRFTFSLDTSKSTAYLQMNSLRAEDTAVYYCAKYPYYYGTSHWYFDVWGQGTLVTVSS
VL: DIQLTQSPSSLSASVGDRVTITCSASQDISNYLNWYQQKPGKAPKVLIYFTSSLHSGVPSRFSGSGSGTDFTLTISSLQPEDFATYYCQQYSTVPWTFGQGTKVEIK
On to B1, for which, in series [2], the “efficacy (vascular leakage and pathogenic angiogenesis)” value is “significant efficacy only at the 2nd week”.
